# Results: patent publication US6620811B2, “Isonicotin- and nicotinamide derivatives of benzothiazoles” (Hoffmann-La Roche Inc., priority 2001, dated 2003)
# Target: T1, human adenosine A2A receptor (Homo sapiens, UniProt P29274)
# T1 construct: expressed in transfected cells; host or cells: CHO cells, semliki forest virus expression system; membrane preparation
# Assay: Human adenosine A2A receptor [3H]-SCH-583261 binding assay (SPA, CHO cell membranes)
# Conditions: [3H]-SCH-583261 1 nM, membranes of CHO cells expressing the recombinant receptor, Ki by Cheng-Prussoff equation; for Ki: read-out: hA2 (pKi) (converted)
# Method: Human Adenosine A2A Receptor
# The human adenosine A2A receptor was recombinantly expressed in chinese hamster ovary (CHO) cells using the semliki forest virus expression system. Cells were harvested, washed twice by centrifugation, homogenised and again washed by centrifugation. The final washed membrane pellet was suspended in a Tris (50 mM) buffer containing 120 mM NaCl, 5 mM KCl, 2 mM CaCl2 and 10 mM MgCl2 (pH 7.4) (buffer A). The [^3H]-SCH-583261 (Dionisotti et al., 1997, Br J Pharmacol 121, 353; 1 nM) binding assay was carried out in 96-well plates in the presence of 2.5 μg of membrane protein, 0.5 mg of Ysi-poly-1-lysine SPA beads and 0.1 U adenosine deaminiase in a final volume of 200 μl of buffer A. Non-specific binding was defined using xainthine amine congener (XAC; 2 μM). Compounds were tested at 10 concentrations from 10 μM-0.3 nM. All assays were conducted in duplicate and repeated at least two times. Assay plates were incubated for 1 hour at room temperature before centrifugation and then bound ligand determined using a Packard Topcount scintillation counter. IC50 values were calculated using a non-linear curve fitting program and Ki values calculated using the Cheng-Prussoff equation.
# T1 sequence (P29274 whole entry): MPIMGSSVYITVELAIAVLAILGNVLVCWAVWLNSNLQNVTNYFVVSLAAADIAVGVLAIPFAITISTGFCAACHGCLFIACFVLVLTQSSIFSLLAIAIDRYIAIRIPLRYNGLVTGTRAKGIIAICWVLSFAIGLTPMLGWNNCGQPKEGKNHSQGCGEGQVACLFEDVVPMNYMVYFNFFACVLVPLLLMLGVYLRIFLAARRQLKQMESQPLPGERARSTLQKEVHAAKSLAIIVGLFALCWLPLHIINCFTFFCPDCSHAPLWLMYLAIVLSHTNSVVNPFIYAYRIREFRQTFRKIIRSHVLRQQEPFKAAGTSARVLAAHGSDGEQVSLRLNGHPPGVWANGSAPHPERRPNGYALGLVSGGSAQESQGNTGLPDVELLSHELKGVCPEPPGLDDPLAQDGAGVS
Ki [nM],hA2 (pKi),Compound
1.15,,"COc1ccc(N2CCOCC2)c2sc(NC(=O)c3ccnc(OCc4ccccn4)c3)nc12 [Example 6, N-(4-Methoxy-7-morpholin-4-yl-benzothiazol-2-yl)-2-(pyridin-2-ylmethoxy)-isonicotinamide]"
0.603,,"COc1ccc(N2CCOCC2)c2sc(NC(=O)c3ccnc(N(C)CCN(C)C)c3)nc12 [Example 99, 2-[(2-Dimethylamino-ethyl)-methyl-amino]-N-(4-methoxy-7-morpholin-4-yl-benzothiazol-2-yl)-isonicotinamide]"
0.501,,"COc1ccc(N2CCOCC2)c2sc(NC(=O)c3ccnc(OCCN(C)C)c3)nc12 [Example 86, 2-(2-Dimethylamino-ethoxy)-N-(4-methoxy-7-morpholin-4-yl-benzothiazol-2-yl)-isonicotinamide]"
2,,"COc1ccc(N2CCOCC2)c2sc(NC(=O)c3ccnc(CN4CCCC4)c3)nc12 [Example 54, N-(4-Methoxy-7-morpholin-4-yl-benzothiazol-2-yl)-2-pyrrolidin-1-ylmethyl-isonicotinamide]"
2,,"CNCc1cc(C(=O)Nc2nc3c(OC)ccc(N4CCOCC4)c3s2)ccn1 [Example 58, N-(4-Methoxy-7-morpholin-4-yl-benzothiazol-2-yl)-2-methylaminomethyl-isonicotinamide]"
2.4,,"CCSc1cc(C(=O)Nc2nc3c(OC)ccc(N4CCOCC4)c3s2)ccn1 [Example 81, 2-Ethylsulfanyl-N-(4-methoxy-7-morpholin-4-yl-benzothiazol-2-yl)-isonicotinamide]"
3.16,,"COCCOc1cc(C(=O)Nc2nc3c(OC)ccc(N4CCOCC4)c3s2)ccn1 [Example 1, 2-(2-Methoxy-ethoxy)-N-(4-methoxy-7-morpholin-4-yl-benzothiazol-2-yl)-isonicotinamide]"
1.58,,"COc1ccc(N2CCOCC2)c2sc(NC(=O)c3ccnc(CN4CCOCC4)c3)nc12 [Example 56, N-(4-Methoxy-7-morpholin-4-yl-benzothiazol-2-yl)-2-morpholin-4-ylmethyl-isonicotinamide]"
3.16,,"COC(=O)N(C)Cc1cc(C(=O)Nc2nc3c(OC)ccc(N4CCOCC4)c3s2)ccn1 [Example 65, [4-(4-Methoxy-7-morpholin-4-yl-benzothiazol-2-yl-carbamoyl)-pyridin-2-ylmethyl]-methyl-carbamic Acid Methyl Ester]"
1.58,,"COc1ccc(N2CCOCC2)c2sc(NC(=O)c3ccnc(OCCNC(C)=O)c3)nc12 [Example 92, 2-(2-Acetylamino-ethoxy)-N-(4-methoxy-7-morpholin-4-yl-benzothiazol-2-yl)-isonicotinamide]"
1.26,,"COc1cc(C(=O)Nc2nc3c(OC)ccc(-c4ccccc4)c3s2)ccn1 [Example 101, 2-Methoxy-N-(4-methoxy-7-phenyl-benzothiazol-2-yl)-isonicotinamide]"
1.91,,"COc1ccc(N2CCOCC2)c2sc(NC(=O)c3ccnc(N(C)C4CCCCC4)c3)nc12 [Example 95, 2-(Cyclohexyl-methyl-amino)-N-(4-methoxy-7-morpholin-4-yl-benzothiazol-2-yl)-isonicotinamide]"
2.51,,"COCCNCc1cc(C(=O)Nc2nc3c(OC)ccc(N4CCOCC4)c3s2)ccn1 [Example 47, 2-[(2-Methoxy-ethylamino)-methyl]-N-(4-methoxy-7-morpholin-4-yl-benzothiazol-2-yl)-isonicotinamide]"
1.02,,"COc1ccc(N2CCOCC2)c2sc(NC(=O)c3ccc(NCc4ccccn4)nc3)nc12 [Example 40, N-(4-Methoxy-7-morpholin-4-yl-benzothiazol-2-yl)-6-[(pyridin-2-ylmethyl)-amino]-nicotinamide]"
1.82,,"COc1ccc(N2CCOCC2)c2sc(NC(=O)c3ccnc(N4CCS(=O)(=O)CC4)c3)nc12 [Example 73, 2-(1,1-Dioxo-1l6-thiomorpholin-4-yl)-N-(4-methoxy-7-morpholin-4-yl-benzothiazol-2-yl)-isonicotinamide]"

# The next lines start with the compound.
Compound,Ki [nM],hA2 (pKi)
"COc1ccc(N2CCOCC2)c2sc(NC(=O)c3ccnc(OCc4ccccc4)c3)nc12 [Example 4, 2-Benzyloxy-N-(4-methoxy-7-morpholin-4-yl-benzothiazol-2-yl)-isonicotinamide]",2.63,
"COc1ccc(N2CCOCC2)c2sc(NC(=O)c3ccnc(NCc4ccccc4)c3)nc12 [Example 83, 2-Benzylamino-N-(4-methoxy-7-morpholin-4-yl-benzothiazol-2-yl)-isonicotinamide]",1.74,
"COc1ccc(N2CCOCC2)c2sc(NC(=O)c3ccnc(NCCNC(C)=O)c3)nc12 [Example 15, 2-(2-Acetylamino-ethylamino)-N-(4-methoxy-7-morpholin-4-yl-benzothiazol-2-yl)-isonicotinamide]",1.91,
"CCCN(C)c1cc(C(=O)Nc2nc3c(OC)ccc(N4CCOCC4)c3s2)ccn1 [Example 94, N-(4-Methoxy-7-morpholin-4-yl-benzothiazol-2-yl)-2-(methyl-propyl-amino)-isonicotinamide]",1.2,
"COc1ccc(N2CCOCC2)c2sc(NC(=O)c3ccnc(NCCc4ccccn4)c3)nc12 [Example 8, N-(4-Methoxy-7-morpholin-4-yl-benzothiazol-2-yl)-2-(2-pyridin-2-yl-ethylamino)-isonicotinamide]",1.78,
"COc1ccc(N2CCOCC2)c2sc(NC(=O)c3ccnc(C4CCCCC4)c3)nc12 [Example 24, 2-Cyclohexyl-N-(4-methoxy-7-morpholin-4-yl-benzothiazol-2-yl)-isonicotinamide]",2.24,
"COc1ccc(N2CCCCC2)c2sc(NC(=O)c3ccnc(CN4CCOCC4)c3)nc12 [Example 71, N-(4-Methoxy-7-piperidin-1-yl-benzothiazol-2-yl)-2-morpholin-4-yl-methyl-isonicotinamide]",,8.7
"COc1ccc(N2CCOCC2)c2sc(NC(=O)c3ccnc(OCCN4CCCC4=O)c3)nc12 [Example 17, N-(4-Methoxy-7-morpholin-4-yl-benzothiazol-2-yl)-2-[2-(2-oxo-pyrrolidin-1-yl)-ethoxy]-isonicotinamide]",2.34,
"COc1ccc(N2CCOCC2)c2sc(NC(=O)c3ccnc(N(C)Cc4ccccc4)c3)nc12 [Example 96, 2-(Benzyl-methyl-amino)-N-(4-methoxy-7-morpholin-4-yl-benzothiazol-2-yl)-isonicotinamide]",1.62,
"COc1ccc(N2CCOCC2)c2sc(NC(=O)c3ccnc(OCCN4CCOCC4)c3)nc12 [Example 87, N-(4-Methoxy-7-morpholin-4-yl-benzothiazol-2-yl)-2-(2-morpholin-4-yl-ethoxy)-isonicotinamide]",0.851,
"COc1ccc(N2CCCCC2)c2sc(NC(=O)c3ccnc(CN4CCCC4)c3)nc12 [Example 70, N-(4-Methoxy-7-piperidin-1-yl-benzothiazol-2-yl)-2-pyrrolidin-1-yl-methyl-isonicotinamide]",,8.9
"COc1ccc(N2CCOCC2)c2sc(NC(=O)c3ccnc(NCc4ccccn4)c3)nc12 [Example 13, N-(4-Methoxy-7-morpholin-4-yl-benzothiazol-2-yl)-2-[(pyridin-2-ylmethyl)-amino]-isonicotinamide]",1.55,
"COc1cc(C(=O)Nc2nc3c(OC)ccc(N4CCOCC4)c3s2)ccn1 [Example 5, 2-Methoxy-N-(4-methoxy-7-morpholin-4-yl-benzothiazol-2-yl)-isonicotinamide]",2.63,
"COc1ccc(N2CCOCC2)c2sc(NC(=O)c3ccnc(SC)c3)nc12 [Example 80, N-(4-Methoxy-7-morpholin-4-yl-benzothiazol-2-yl)-2-methylsulfanyl-isonicotinamide]",2.09,
"COc1ccc(N2CCOCC2)c2sc(NC(=O)c3ccnc(CNCCCC(=O)OC(C)(C)C)c3)nc12 [Example 62, 4-{[4-(4-Methoxy-7-morpholin-4-yl-benzothiazol-2-yl-carbamoyl)-pyridin-2-yl-methyl]-amino}-butyric Acid tert-Butyl Ester]",1.58,
"COc1ccc(N2CCOCC2)c2sc(NC(=O)c3ccnc(OC(C)C)c3)nc12 [Example 77, 2-Isopropoxy-N-(4-methoxy-7-morpholin-4-yl-benzothiazol-2-yl)-isonicotinamide]",2.88,
"COc1ccc(N2CCOCC2)c2sc(NC(=O)c3ccnc(NCCN4CCOCC4)c3)nc12 [Example 18, N-(4-Methoxy-7-morpholin-4-yl-benzothiazol-2-yl)-2-(2-morpholin-4-yl-ethylamino)-isonicotinamide]",0.617,
"COc1ccc(N2CCOCC2)c2sc(NC(=O)c3ccnc(N4CCC4)c3)nc12 [Example 26, 2-Azetidin-1-yl-N-(4-methoxy-7-morpholin-4-yl-benzothiazol-2-yl)-isonicotinamide]",0.955,
"COc1ccc(N2CCOCC2)c2sc(NC(=O)c3ccnc(N(C)CCc4ccccc4)c3)nc12 [Example 97, N-(4-Methoxy-7-morpholin-4-yl-benzothiazol-2-yl)-2-(methyl-phenethyl-amino)-isonicotinamide]",2.24,
"COc1ccc(N2CCOCC2)c2sc(NC(=O)c3ccnc(N4CC(O)C4)c3)nc12 [Example 74, 2-(3-Hydroxy-azetidin-1-yl)-N-(4-methoxy-7-morpholin-4-yl-benzothiazol-2-yl)-isonicotinamide]",1.35,
